# From PubChem BioAssay AID687005 (Broad Institute, 2013)
# Records with an inconclusive call do not appear. Calls of active or inactive are those of the source.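 How the source made its calls: active means Compounds that reduce signal, with fitted half-maximal dose at or under twice the top valid tested dose; inconclusive means Poor fit, or flat curve losing 30 to 70% of signal; inactive means Potency past limit, flat within 30%, or opposite direction.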
# Assay: HEK293T cell cytotoxicity, dose response, cytotoxicity control, ATP luminescence, cherry-pick samples (AID 687005)
# Settings: HEK293T viability, ATP luminescence (CellTiter-Glo), 48 h; at 23.5 µM (top of the series)
row,SMILES,"activity change, negative = cytotoxicity"
1,C[C@@H]1CN([C@H](C)CO)C(=O)c2cc(NS(=O)(=O)c3ccccc3)ccc2O[C@H]1CN(C)C(=O)NC1CCCCC1,-10.5% (inactive)
2,Cc1cc(C(=O)Nc2ccc3c(c2)C(=O)N(C)[C@H]2CC[C@@H](CC(=O)N[C@@H](C)c4ccccc4)O[C@H]2CO3)no1,-36.7% (inactive)
3,Cc1noc(C)c1S(=O)(=O)Nc1ccc2c(c1)CC(=O)N([C@H](C)CO)C[C@H](C)[C@H](CN(C)S(=O)(=O)c1cccs1)O2,-4.72% (inactive)
4,CO[C@@H]1CN(C)C(=O)c2ccc(NC(C)=O)cc2OC[C@@H](C)N(C(=O)c2ccccn2)C[C@H]1C,14.8% (inactive)
5,CO[C@H]1CN(C)C(=O)c2cc(NC(C)=O)ccc2OC[C@H](C)N(Cc2cccc(F)c2)C[C@@H]1C,-25.3% (inactive)
6,COC(=O)C1=C(C)N(Cc2ccccc2)C(=S)N[C@H]1c1ccc(Br)cc1,13.4% (inactive)
7,COCC(=O)N1C[C@H](C)[C@@H](OC)CN(C)C(=O)c2ccc(NS(C)(=O)=O)cc2OC[C@@H]1C,17.4% (inactive)

# Same assay, conditions: HEK293T viability, ATP luminescence (CellTiter-Glo), 48 h; at 26 µM (top of the series)
row,SMILES,"activity change, negative = cytotoxicity"
1,O=C([C@@H]1[C@@H](CO)[C@@H]2Cn3c(cccc3=O)[C@H]1N2Cc1cccc(Cl)c1)N1CCOCC1,-9.53% (inactive)
2,O=C(CN(c1ccccc1)S(=O)(=O)c1ccc(F)cc1)NC1CCS(=O)(=O)C1 (stereo not given),-0.328% (inactive)
3,Cc1cc(C(=O)NC(=S)Nc2ccccc2N2CCOCC2)ccc1[N+](=O)[O-],-23.2% (inactive)
4,C[C@@H]1CN([C@@H](C)CO)C(=O)c2cc(-c3cncnc3)cnc2O[C@H]1CN(C)C(=O)CN1CCOCC1,-25.3% (inactive)
5,COC(=O)C1=C(C)N(Cc2ccccc2)C(=S)N[C@H]1c1cccc(C(F)(F)F)c1,-25.6% (inactive)
6,Cc1cc(C)c(NC(=O)C2CCCN2CCO)c(C)c1 (stereo not given),-10.1% (inactive)
7,O=C(NC(=S)Nc1ccc(CN2CCOCC2)cc1)c1ccc([N+](=O)[O-])cc1,-19.4% (inactive)
8,Cc1ccc(S(=O)(=O)N(C)C[C@@H]2Oc3ncc(Br)cc3C(=O)N([C@@H](C)CO)C[C@H]2C)cc1,-14.6% (inactive)
9,O=C(NCCN1CCCCC1)[C@@H]1N[C@@H]2c3ccc(-c4ccncc4)c(=O)n3C[C@@H]2[C@H]1CO,-26.2% (inactive)
10,CO[C@H]1CN(C)C(=O)c2cc(NC(=O)c3ccccc3F)ccc2OC[C@H](C)N(CC2CCOCC2)C[C@H]1C,57% (inactive)
11,CCCNC(=O)N1[C@@H](CO)[C@@H](c2ccc(-c3ccccc3)cc2)[C@@H]1CNC(C)=O,-1.66% (inactive)
12,CCC(=O)N(C)C[C@H]1Oc2cc(C#CC(C)(C)O)ccc2S(=O)(=O)N([C@@H](C)CO)C[C@@H]1C,8.91% (inactive)
13,COc1ccc(CN(C)C[C@@H]2Oc3ccc(NC(=O)Nc4ccc(F)cc4)cc3CC(=O)N([C@H](C)CO)C[C@H]2C)cc1,-7.45% (inactive)
14,C[C@H]1CN([C@@H](C)CO)C(=O)c2cc(-c3ccc(F)cc3)cnc2O[C@@H]1CN(C)CC1CCCCC1,-16.9% (inactive)
15,Cc1ccccc1OCC(=O)NCc1ccccc1,2.49% (inactive)
16,C[C@@H]1CN([C@H](C)CO)C(=O)Cc2cc(NC(=O)CCCCCC(=O)Nc3ccccc3N)ccc2O[C@H]1CN(C)C(=O)Nc1ccccc1,0.594% (inactive)
17,Cc1cccc(NC(=O)CN(C)C(=O)C2CCCC2)c1C,-33.5% (inactive)
18,CCC(=O)N1[C@H](CO)[C@H](c2ccc(-c3ccc(F)cc3)cc2)[C@@H]1CNC(C)=O,-42.1% (inactive)
19,C[C@H](CO)N1C[C@H](C)[C@@H](CN(C)S(=O)(=O)c2ccccc2)Oc2c(NC(=O)Nc3cccc4ccccc34)cccc2C1=O,35.2% (inactive)
20,C[C@H](O)C#Cc1ccc2c(c1)O[C@H](CN(C)C(=O)C1CCCCC1)[C@H](C)CN([C@@H](C)CO)S2(=O)=O,34.3% (inactive)
21,Cc1cc(C)c(NC(=O)C2CCCCN2C)c(C)c1 (stereo not given),10.1% (inactive)
22,COc1ccccc1CNC(=O)C[C@@H]1CC[C@@H]2[C@H](COC[C@@H](O)CN2Cc2ccccc2)O1,-10.7% (inactive)
23,CO[C@H]1CN(C)C(=O)c2cc(NC(=O)c3ccc4c(c3)OCO4)ccc2OC[C@@H](C)N(CC2CC2)C[C@H]1C,-5.62% (inactive)
24,CO[C@H]1CC[C@@H]2CCOc3c(C#N)cccc3C(=O)N(C)C[C@H](OC)[C@@H](C)C(=O)N(C)C[C@@H]1O2,-0.939% (inactive)
25,CCc1ccc(NC(=O)[C@H](C)NC(=O)C2CCN(C(=O)[C@@H](N)C(C)C)CC2)cc1,-17.1% (inactive)
26,COCC(=O)N1[C@H](C#N)[C@H](c2ccc(C#Cc3ccccc3F)cc2)[C@H]1CO,8.29% (inactive)
27,C[C@@H]1CCCCO[C@H](CN(C)C(=O)c2ccccc2)[C@@H](C)CN([C@@H](C)CO)C(=O)c2cc(NC(=O)c3ccccc3)ccc2O1,5.72% (inactive)
28,Cc1ccc(S(=O)(=O)Nc2ccc3c(c2)C(=O)N([C@@H](C)CO)C[C@H](C)[C@H](CN(C)S(=O)(=O)c2ccc(Cl)cc2)OCCCC[C@@H](C)O3)cc1,-26.9% (inactive)

row,SMILES,"activity change, negative = cytotoxicity"
1,C[C@@H]1CN([C@H](C)CO)C(=O)c2cc(C3=CCCCC3)cnc2O[C@H]1CN(C)C(=O)Cc1cccnc1,-11.9% (inactive)
2,CCNC(=O)Nc1ccc2c(c1)C(=O)N(C)[C@@H]1CC[C@H](CC(=O)N[C@@H](C)c3ccccc3)O[C@@H]1CO2,66.2% (inactive)
3,CC(=O)c1ccc(OCC(=O)NCc2ccc(F)cc2)cc1,11% (inactive)
4,C[C@@H]1CN([C@@H](C)CO)C(=O)c2cc(NC(=O)CCN3CCOCC3)ccc2O[C@@H]1CN(C)Cc1ccc(C(=O)O)cc1,-11.9% (inactive)
5,CC(C)NC(=O)Nc1ccc2c(c1)CC(=O)N([C@H](C)CO)C[C@H](C)[C@@H](CN(C)C(=O)Nc1ccc3c(c1)OCO3)O2,31.9% (inactive)
6,COc1ccc(-c2cnc3c(c2)C(=O)N([C@@H](C)CO)C[C@@H](C)[C@@H](CN(C)S(C)(=O)=O)O3)cc1,6.27% (inactive)
7,CCCC(=O)Nc1ccc2c(c1)OC[C@H](C)N(Cc1ccccn1)C[C@H](C)[C@H](OC)CN(C)C2=O,16.2% (inactive)
8,CC1(C(=O)Nc2ccc3ccccc3c2)CCC(=O)N1C1CC1 (stereo not given),-28.4% (inactive)
9,CNC(=O)C[C@@H]1CC[C@@H]2[C@H](COC[C@@H](O)CN2C(=O)Nc2ccc3c(c2)OCO3)O1,25% (inactive)
10,COc1ccccc1C(=O)N1C[C@H]2[C@@H](c3ccccc31)[C@@H](CO)N2C(=O)Cc1ccccc1,-6.87% (inactive)
11,CNC[C@H]1Oc2c(NS(=O)(=O)c3cccs3)cccc2C(=O)N([C@H](C)CO)C[C@@H]1C,-26.9% (inactive)
12,CC(=O)N[C@H]1CC[C@@H](CCNC(=O)C2CCC2)O[C@H]1CO,1.44% (inactive)
13,CN(C[C@H]1N[C@@H](CO)[C@H]1c1ccc(-c2cccc(F)c2)cc1)S(C)(=O)=O,61.6% (inactive)
14,C[C@@H]1CN([C@@H](C)CO)C(=O)c2cc(NC(=O)Nc3ccccc3)ccc2O[C@@H]1CN(C)C(=O)Nc1cccc2ccccc12,203% (inactive)
15,CC(=O)N1[C@H](CO)[C@H](c2ccc(-c3ccccc3)cc2)[C@H]1CNC(=O)C1CC1,-33.3% (inactive)
16,CCOC(=O)NC(=S)Nc1ccc(C(C)(C)C)cc1Br,9.89% (inactive)
17,Cc1noc(C)c1NC(=O)Nc1cccc2c1O[C@H](CN(C)S(=O)(=O)c1cn(C)cn1)[C@H](C)CN([C@H](C)CO)C2=O,-29.5% (inactive)
18,COc1ccc(CN(C)C[C@@H]2OCCCC[C@@H](C)Oc3ccc(NC(=O)c4ccccc4)cc3C(=O)N([C@H](C)CO)C[C@@H]2C)cc1,-11.1% (inactive)
19,C[C@H]1CCCCO[C@@H](CN(C)C(=O)c2ccccc2)[C@@H](C)CN([C@@H](C)CO)C(=O)c2cc(NC(=O)c3ccncc3)ccc2O1,-3.03% (inactive)
20,O=C(CSc1ncnc2c1cnn2-c1ccccc1)NC1CCS(=O)(=O)C1 (stereo not given),5% (inactive)
21,C[C@H](CO)N1C[C@H](C)[C@H](CN(C)C(=O)NC2CCCCC2)OCCCC[C@H](C)Oc2ccc(NC(=O)C3CCCCC3)cc2C1=O,15% (inactive)
22,CC(C)NC(=O)NCC[C@H]1CC[C@H](NC(=O)CN(C)C)[C@H](CO)O1,7.79% (inactive)
23,O=C(NC1CCCC1)N1CCCCN2[C@H](CO)[C@H](c3ccc(-c4cncnc4)cc3)[C@@H]2C1,-34.7% (inactive)
24,COCCNC(=O)C[C@@H]1C[C@@H]2c3cc(NC(=O)C4CCOCC4)ccc3O[C@@H]2[C@@H](CO)O1,-3.7% (inactive)
25,C[C@H](CO)N1C[C@H](C)[C@@H](CN(C)C(=O)C2CCOCC2)Oc2ncc(C#CCc3ccccc3)cc2C1=O,6.08% (inactive)
26,Cc1ccc(NC(=O)C2CCC(=O)N2)cc1C (stereo not given),-5.26% (inactive)
27,CN1C(=O)c2cc(NS(=O)(=O)c3cccc(F)c3)ccc2OC[C@@H]2O[C@@H](CC(=O)O)CC[C@H]21,-21.4% (inactive)

# Same assay, conditions: HEK293T viability, ATP luminescence (CellTiter-Glo), 48 h; at 30 µM (top of the series)
row,SMILES,"activity change, negative = cytotoxicity"
1,CNC(=O)CN(c1ccc(C)cc1)S(=O)(=O)c1ccccc1,-17.7% (inactive)

# Same assay, conditions: HEK293T viability, ATP luminescence (CellTiter-Glo), 48 h; at 42 µM (top of the series)
row,SMILES,"activity change, negative = cytotoxicity"
1,CCc1ccc(NC(=O)C2NC(=O)CC2c2ccccc2)cc1 (stereo not given),-46.7% (inactive)

# Same assay, conditions: HEK293T viability, ATP luminescence (CellTiter-Glo), 48 h; at 46 µM (top of the series)
row,SMILES,"activity change, negative = cytotoxicity"
1,CCC(C)(C(=O)Nc1cccc(C)c1)N1CCC1=O (stereo not given),0.095% (inactive)
